Consider four compounds from ChEMBL document CHEMBL5715260, “Selectivity Literature for EUbOPEN Chemogenomic Library” (2024).

For test [1], the target named is Steroidogenic factor 1 (Homo sapiens) (UniProt Q13285). Put plainly: Selectivity interaction (Reporter gene assay) EUB0001482aCl NR5A1. On the set-up: recommended concentration 10 uM. (A reporter such as luciferase makes a cellular process visible.)
In test [2] the target is Nuclear receptor subfamily 4immunitygroup A member 1 (Homo sapiens) (UniProt P22736). Put plainly: Selectivity interaction (Reporter gene assay) EUB0001482aCl NR4A1. Also noted: recommended concentration 10 uM.
Test [3] concerns the target T1, Hepatocyte nuclear factor 4-alpha (Homo sapiens) (UniProt P41235).
T1 sequence (whole entry): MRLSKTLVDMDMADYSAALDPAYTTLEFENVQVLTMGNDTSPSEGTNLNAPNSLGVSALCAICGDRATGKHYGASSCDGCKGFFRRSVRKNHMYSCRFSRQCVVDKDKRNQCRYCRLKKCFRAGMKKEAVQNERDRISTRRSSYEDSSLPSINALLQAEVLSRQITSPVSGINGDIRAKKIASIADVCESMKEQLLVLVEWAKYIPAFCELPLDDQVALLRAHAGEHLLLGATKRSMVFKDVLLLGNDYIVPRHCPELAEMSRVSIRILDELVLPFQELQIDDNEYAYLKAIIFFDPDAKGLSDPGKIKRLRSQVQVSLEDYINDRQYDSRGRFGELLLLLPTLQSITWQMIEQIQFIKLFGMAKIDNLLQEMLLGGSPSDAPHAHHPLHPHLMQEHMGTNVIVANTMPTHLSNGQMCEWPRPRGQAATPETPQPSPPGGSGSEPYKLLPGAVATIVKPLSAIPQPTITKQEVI
Briefly: Selectivity interaction (Reporter gene assay) EUB0001482aCl HNF4A. Also noted: recommended concentration 10 uM.

The target of test [4] is T2, Nuclear receptor subfamily 2 group C member 1 (Homo sapiens) (UniProt P13056).
T2 sequence (whole entry): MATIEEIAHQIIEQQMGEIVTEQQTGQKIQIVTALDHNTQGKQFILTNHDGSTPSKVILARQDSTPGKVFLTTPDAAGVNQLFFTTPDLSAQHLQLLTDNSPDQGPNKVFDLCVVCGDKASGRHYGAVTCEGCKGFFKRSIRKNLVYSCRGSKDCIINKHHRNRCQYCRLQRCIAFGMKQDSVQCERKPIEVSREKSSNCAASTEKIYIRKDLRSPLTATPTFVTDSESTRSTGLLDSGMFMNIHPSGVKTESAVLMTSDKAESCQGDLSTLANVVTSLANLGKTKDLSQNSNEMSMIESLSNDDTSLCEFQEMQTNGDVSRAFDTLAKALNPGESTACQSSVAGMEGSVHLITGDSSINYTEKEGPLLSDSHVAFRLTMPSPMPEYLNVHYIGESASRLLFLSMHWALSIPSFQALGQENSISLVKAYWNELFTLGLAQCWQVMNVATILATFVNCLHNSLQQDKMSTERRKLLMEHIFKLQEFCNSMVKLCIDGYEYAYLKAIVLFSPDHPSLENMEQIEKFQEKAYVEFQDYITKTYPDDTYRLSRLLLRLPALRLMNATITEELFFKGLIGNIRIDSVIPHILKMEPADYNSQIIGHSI
Put plainly: Selectivity interaction (Reporter gene assay) EUB0001482aCl NR2C1. On the set-up: recommended concentration 10 uM.

Test [5] concerns the target T3, Alpha trans-inducing protein (Human alphaherpesvirus 1) (UniProt A0A5J6DW59). Put plainly: Selectivity interaction (Reporter gene assay) EUB0001482aCl UL48. On the set-up: recommended concentration 10 uM.
Test [6] addresses T4, Retinoic acid receptor RXR-alpha (Homo sapiens) (UniProt P19793).
T4 sequence (whole entry): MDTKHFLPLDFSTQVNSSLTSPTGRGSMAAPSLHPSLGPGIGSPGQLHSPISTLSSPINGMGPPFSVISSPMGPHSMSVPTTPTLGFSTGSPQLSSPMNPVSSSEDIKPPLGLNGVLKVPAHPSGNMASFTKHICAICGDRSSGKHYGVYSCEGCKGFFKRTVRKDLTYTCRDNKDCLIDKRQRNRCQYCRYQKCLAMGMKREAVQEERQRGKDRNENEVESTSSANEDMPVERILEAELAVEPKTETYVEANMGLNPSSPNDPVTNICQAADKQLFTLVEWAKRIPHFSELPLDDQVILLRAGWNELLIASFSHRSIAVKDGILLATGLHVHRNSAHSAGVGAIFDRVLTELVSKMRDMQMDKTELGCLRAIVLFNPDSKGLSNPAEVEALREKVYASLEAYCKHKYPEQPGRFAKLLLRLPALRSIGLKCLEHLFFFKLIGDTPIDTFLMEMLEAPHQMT
Briefly: Selectivity interaction (Reporter gene assay) EUB0001482aCl RXRA. The conditions noted are these: reference bexarotene 1 uM, Selectivity number of off-targets 0.0, Selectivity number of targets 1.0, Source Knowledge inhouse. On the set-up: recommended concentration 10 uM.

The target in test [7] is Nuclear receptor subfamily 2 group E member 1 (Homo sapiens) (UniProt Q9Y466). Briefly: Selectivity interaction (Reporter gene assay) EUB0001482aCl NR2E1. Also noted: recommended concentration 10 uM.
The target in test [8] is T1, Hepatocyte nuclear factor 4-alpha (Homo sapiens). Briefly: Selectivity interaction (Reporter gene assay) EUB0001477a HNF4A. Also noted: recommended concentration 1 uM.
The target in test [9] is T2, Nuclear receptor subfamily 2 group C member 1 (Homo sapiens). Briefly: Selectivity interaction (Reporter gene assay) EUB0001477a NR2C1. Also noted: recommended concentration 1 uM.
Test [10] addresses T3, Alpha trans-inducing protein (Human alphaherpesvirus 1). Briefly: Selectivity interaction (Reporter gene assay) EUB0001477a UL48. On the set-up: recommended concentration 1 uM.
For test [11], the target named is T4, Retinoic acid receptor RXR-alpha (Homo sapiens). Put plainly: Selectivity interaction (Reporter gene assay) EUB0001477a RXRA. Also noted: recommended concentration 1 uM. The conditions noted are these: reference bexarotene 1 uM, Selectivity number of off-targets 0.0, Selectivity number of targets 1.0, Source Knowledge inhouse.
Test [12] addresses Nuclear receptor subfamily 2 group E member 1 (Homo sapiens) (UniProt Q9Y466). Put plainly: Selectivity interaction (Reporter gene assay) EUB0001477a NR2E1. Also noted: recommended concentration 1 uM.
In test [13] the target is Nuclear receptor subfamily 4immunitygroup A member 1 (Homo sapiens) (UniProt P22736). Put plainly: Selectivity interaction (Reporter gene assay) EUB0001477a NR4A1. Also noted: recommended concentration 1 uM.
The target in test [14] is Steroidogenic factor 1 (Homo sapiens) (UniProt Q13285). Briefly: Selectivity interaction (Reporter gene assay) EUB0001477a NR5A1. On the set-up: recommended concentration 1 uM.
Test [15] has as its target Bromodomain-containing protein 1 (Homo sapiens) (UniProt O95696). The conditions noted are these: at 1 µM.
Test [16] addresses Bromodomain and PHD finger-containing protein 3 (Homo sapiens) (UniProt Q9ULD4). The conditions noted are these: at 1 µM.
Test [17] concerns the target Nuclear receptor subfamily 4immunitygroup A member 1 (Homo sapiens) (UniProt P22736). Put plainly: Selectivity interaction (Reporter gene assay) EUB0001174a NR4A1. On the set-up: recommended concentration 1 uM.
Test [18] has as its target T4, Retinoic acid receptor RXR-alpha (Homo sapiens). Put plainly: Selectivity interaction (Reporter gene assay) EUB0001174a RXRA. Also noted: recommended concentration 1 uM. The conditions noted are these: reference bexarotene 1 uM, Selectivity number of off-targets 0.0, Selectivity number of targets 1.0, Source Knowledge inhouse.
In test [19] the target is Oxysterols receptor LXR-alpha (Homo sapiens) (UniProt Q13133). Put plainly: Selectivity interaction (Reporter gene assay) EUB0001174a NR1H3. The conditions noted are these: screened at recom. conc., Selectivity number of off-targets 1.0, Selectivity number of targets 19.0, Source Knowledge inhouse. Also noted: recommended concentration 1 uM.
Test [20] deals with T3, Alpha trans-inducing protein (Human alphaherpesvirus 1). Put plainly: Selectivity interaction (Reporter gene assay) EUB0001174a UL48. On the set-up: recommended concentration 1 uM.
The target in test [21] is T2, Nuclear receptor subfamily 2 group C member 1 (Homo sapiens). Put plainly: Selectivity interaction (Reporter gene assay) EUB0001174a NR2C1. On the set-up: recommended concentration 1 uM.
Test [22] deals with Steroidogenic factor 1 (Homo sapiens) (UniProt Q13285). Briefly: Selectivity interaction (Reporter gene assay) EUB0001174a NR5A1. On the set-up: recommended concentration 1 uM.
Test [23] has as its target T1, Hepatocyte nuclear factor 4-alpha (Homo sapiens). Briefly: Selectivity interaction (Reporter gene assay) EUB0001174a HNF4A. On the set-up: recommended concentration 1 uM.
Test [24] concerns the target Nuclear receptor subfamily 2 group E member 1 (Homo sapiens) (UniProt Q9Y466). Put plainly: Selectivity interaction (Reporter gene assay) EUB0001174a NR2E1. On the set-up: recommended concentration 1 uM. The conditions noted are these: screened at recom. conc., Selectivity number of off-targets 1.0, Selectivity number of targets 5.0, Source Knowledge inhouse.
For test [25], the target named is T5, Oxysterols receptor LXR-beta (Homo sapiens) (UniProt P55055).
T5 sequence (whole entry): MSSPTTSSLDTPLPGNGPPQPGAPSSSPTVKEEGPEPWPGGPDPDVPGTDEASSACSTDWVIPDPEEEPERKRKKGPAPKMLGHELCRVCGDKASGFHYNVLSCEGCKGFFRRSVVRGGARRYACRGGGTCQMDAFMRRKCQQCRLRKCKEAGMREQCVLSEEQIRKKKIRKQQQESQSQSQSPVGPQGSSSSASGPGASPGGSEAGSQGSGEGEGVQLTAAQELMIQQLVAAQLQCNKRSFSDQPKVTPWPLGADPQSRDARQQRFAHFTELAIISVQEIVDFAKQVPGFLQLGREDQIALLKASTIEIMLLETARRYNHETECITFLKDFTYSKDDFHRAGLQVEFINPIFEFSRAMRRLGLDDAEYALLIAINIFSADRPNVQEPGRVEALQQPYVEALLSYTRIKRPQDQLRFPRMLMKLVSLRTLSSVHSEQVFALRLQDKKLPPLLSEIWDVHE
Put plainly: Selectivity interaction (Reporter gene assay) EUB0001174a NR1H2. Also noted: recommended concentration 1 uM. The conditions noted are these: screened at recom. conc., Selectivity number of off-targets 1.0, Selectivity number of targets 19.0, Source Knowledge inhouse.

Sequence of Nuclear receptor subfamily 4immunitygroup A member 1 (Homo sapiens) (P22736 whole entry): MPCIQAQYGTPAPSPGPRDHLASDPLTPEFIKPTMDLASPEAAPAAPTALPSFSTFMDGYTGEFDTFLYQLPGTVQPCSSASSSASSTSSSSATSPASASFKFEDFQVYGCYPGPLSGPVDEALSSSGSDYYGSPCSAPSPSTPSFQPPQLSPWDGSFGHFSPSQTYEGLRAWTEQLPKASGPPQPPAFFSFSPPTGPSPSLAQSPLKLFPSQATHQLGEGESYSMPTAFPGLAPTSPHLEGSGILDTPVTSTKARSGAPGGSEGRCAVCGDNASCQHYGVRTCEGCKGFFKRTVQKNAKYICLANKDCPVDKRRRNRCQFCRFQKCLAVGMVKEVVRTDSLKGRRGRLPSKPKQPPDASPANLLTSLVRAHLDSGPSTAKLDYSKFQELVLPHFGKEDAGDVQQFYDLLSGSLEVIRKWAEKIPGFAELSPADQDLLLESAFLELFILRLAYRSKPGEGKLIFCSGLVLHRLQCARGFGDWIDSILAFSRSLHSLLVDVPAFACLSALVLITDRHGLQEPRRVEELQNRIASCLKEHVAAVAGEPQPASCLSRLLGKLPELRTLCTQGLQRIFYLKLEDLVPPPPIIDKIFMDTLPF
T3 sequence (A0A5J6DW59 as listed by the source): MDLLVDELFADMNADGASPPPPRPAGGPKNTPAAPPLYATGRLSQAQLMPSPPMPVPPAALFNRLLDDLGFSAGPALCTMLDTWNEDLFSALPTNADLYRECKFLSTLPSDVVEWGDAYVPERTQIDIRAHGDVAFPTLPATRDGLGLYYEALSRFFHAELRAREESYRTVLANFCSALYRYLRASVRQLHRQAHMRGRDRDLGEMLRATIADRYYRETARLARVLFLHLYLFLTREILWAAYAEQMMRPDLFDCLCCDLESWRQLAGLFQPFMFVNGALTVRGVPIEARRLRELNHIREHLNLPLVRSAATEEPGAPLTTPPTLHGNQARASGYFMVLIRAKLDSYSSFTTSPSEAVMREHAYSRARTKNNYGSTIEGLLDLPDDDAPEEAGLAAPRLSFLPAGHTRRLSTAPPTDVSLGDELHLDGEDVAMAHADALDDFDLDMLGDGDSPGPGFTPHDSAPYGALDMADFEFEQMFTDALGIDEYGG
Sequence of Steroidogenic factor 1 (Homo sapiens) (Q13285 whole entry): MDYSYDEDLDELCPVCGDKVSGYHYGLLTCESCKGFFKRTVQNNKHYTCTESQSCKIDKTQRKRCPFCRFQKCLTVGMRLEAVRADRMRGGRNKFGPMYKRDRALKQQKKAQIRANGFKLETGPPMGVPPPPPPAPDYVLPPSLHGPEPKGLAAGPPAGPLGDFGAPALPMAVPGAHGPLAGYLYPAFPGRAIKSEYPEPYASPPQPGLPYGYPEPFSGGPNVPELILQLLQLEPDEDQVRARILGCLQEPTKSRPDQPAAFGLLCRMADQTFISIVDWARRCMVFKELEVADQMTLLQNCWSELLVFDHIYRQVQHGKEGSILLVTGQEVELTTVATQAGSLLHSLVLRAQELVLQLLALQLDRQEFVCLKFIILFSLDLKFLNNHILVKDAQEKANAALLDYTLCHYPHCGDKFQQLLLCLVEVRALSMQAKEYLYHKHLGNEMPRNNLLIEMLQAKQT
Sequence of Nuclear receptor subfamily 2 group E member 1 (Homo sapiens) (Q9Y466 whole entry): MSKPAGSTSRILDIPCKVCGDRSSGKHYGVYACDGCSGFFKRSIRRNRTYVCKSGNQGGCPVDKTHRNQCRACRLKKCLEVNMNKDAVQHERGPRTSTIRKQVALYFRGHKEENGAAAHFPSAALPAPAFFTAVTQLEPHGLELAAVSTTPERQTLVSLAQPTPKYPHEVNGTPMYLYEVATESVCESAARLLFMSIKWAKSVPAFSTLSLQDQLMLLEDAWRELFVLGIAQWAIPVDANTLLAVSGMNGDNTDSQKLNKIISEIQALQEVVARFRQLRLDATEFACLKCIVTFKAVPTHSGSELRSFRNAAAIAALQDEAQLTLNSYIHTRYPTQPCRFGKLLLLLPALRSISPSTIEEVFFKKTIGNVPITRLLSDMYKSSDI
Sequence of Bromodomain-containing protein 1 (Homo sapiens) (O95696 whole entry): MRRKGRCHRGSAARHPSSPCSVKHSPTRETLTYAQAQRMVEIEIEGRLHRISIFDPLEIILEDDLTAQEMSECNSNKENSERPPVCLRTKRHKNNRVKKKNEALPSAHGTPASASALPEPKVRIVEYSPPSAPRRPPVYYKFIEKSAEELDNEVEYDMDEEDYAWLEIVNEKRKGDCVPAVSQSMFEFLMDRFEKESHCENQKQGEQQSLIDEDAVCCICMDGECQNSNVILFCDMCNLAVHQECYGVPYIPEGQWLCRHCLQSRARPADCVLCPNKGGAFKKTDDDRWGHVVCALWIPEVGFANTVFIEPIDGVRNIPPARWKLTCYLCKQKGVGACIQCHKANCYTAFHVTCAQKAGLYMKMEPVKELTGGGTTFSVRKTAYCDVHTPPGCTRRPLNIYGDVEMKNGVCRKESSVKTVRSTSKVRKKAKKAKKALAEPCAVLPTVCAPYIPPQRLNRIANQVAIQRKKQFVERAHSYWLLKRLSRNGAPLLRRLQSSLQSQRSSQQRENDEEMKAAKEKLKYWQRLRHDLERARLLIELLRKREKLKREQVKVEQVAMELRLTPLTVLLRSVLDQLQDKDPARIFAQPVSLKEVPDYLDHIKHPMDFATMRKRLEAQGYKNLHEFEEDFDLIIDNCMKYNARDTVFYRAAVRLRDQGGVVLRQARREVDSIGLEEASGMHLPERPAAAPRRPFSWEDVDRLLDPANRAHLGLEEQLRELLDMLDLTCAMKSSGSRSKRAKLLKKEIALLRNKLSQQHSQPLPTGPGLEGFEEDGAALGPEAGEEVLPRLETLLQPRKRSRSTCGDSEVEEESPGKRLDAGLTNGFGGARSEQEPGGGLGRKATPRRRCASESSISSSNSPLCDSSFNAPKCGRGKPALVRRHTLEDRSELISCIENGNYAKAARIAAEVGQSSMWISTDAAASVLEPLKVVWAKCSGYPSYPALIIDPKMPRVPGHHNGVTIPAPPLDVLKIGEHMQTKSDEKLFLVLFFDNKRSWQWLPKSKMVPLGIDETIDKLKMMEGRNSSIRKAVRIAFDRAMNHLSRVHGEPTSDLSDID
Sequence of Bromodomain and PHD finger-containing protein 3 (Homo sapiens) (Q9ULD4 whole entry): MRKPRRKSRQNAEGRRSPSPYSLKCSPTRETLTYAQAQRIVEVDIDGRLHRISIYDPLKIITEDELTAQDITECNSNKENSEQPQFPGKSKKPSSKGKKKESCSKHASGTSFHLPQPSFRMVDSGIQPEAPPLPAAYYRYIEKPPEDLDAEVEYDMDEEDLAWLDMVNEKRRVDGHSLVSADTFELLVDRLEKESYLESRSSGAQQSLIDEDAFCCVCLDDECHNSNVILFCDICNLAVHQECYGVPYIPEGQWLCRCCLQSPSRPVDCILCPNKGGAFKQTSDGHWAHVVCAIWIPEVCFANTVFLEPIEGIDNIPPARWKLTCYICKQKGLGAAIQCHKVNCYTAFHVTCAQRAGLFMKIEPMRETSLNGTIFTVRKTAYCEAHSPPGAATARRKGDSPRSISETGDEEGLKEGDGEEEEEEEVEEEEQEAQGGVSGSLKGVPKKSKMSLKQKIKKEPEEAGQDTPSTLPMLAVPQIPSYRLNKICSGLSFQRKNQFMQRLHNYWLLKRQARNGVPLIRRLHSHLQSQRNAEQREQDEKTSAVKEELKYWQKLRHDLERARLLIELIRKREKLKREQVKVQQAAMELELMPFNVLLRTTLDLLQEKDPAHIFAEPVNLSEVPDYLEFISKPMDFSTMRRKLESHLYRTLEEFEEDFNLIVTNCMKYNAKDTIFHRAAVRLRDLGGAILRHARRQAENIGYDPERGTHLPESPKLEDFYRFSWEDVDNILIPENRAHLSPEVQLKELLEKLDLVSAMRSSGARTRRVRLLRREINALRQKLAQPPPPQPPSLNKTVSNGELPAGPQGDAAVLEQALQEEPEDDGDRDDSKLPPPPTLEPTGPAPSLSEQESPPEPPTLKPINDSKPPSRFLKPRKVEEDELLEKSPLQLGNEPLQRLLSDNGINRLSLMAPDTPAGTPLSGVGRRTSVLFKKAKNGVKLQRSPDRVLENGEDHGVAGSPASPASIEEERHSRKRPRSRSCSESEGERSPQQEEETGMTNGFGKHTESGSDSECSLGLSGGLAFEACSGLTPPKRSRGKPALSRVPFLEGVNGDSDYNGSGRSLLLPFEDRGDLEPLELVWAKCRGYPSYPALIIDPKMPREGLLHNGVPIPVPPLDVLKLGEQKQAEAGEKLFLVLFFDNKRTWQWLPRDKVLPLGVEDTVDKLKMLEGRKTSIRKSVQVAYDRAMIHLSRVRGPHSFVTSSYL
Sequence of Oxysterols receptor LXR-alpha (Homo sapiens) (Q13133 whole entry): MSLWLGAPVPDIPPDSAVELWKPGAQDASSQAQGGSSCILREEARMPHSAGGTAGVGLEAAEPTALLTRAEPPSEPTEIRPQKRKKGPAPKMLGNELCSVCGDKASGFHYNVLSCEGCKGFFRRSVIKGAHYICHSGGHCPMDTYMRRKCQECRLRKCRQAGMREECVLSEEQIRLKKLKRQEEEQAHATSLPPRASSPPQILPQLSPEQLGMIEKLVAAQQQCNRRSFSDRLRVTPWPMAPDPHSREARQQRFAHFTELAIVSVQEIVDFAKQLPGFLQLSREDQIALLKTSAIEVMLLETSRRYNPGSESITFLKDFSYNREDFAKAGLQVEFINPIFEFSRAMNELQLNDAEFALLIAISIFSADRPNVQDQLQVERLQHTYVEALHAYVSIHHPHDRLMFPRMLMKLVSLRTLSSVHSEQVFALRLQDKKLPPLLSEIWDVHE

As to `C[C@H](CCOc1cccc(CC(=O)O)c1)N(Cc1cccc(C(F)(F)F)c1Cl)CC(c1ccccc1)c1ccccc1`, the Fold activation in test [1] was found to be 1.11; in [2], 1.25; in test [3], 1.02; in test [4], 1.42; in [7], 1.41. The same compound gave a P-value in test [5] of 0.0185. The same compound yielded a Relative activation in [6] of 0.905%.

Consider `Clc1ccc(-c2nc3sccn3c2/C=N/OCc2ccc(Cl)c(Cl)c2)cc1`, for which the Fold activation is 1.11 in test [8], 1.23 in [9] and 1.19 in [14]. For the same compound, the P-value in test [10] was determined as 0.000158. Moreover, in test [11], the Relative activation turned out to be 0.637%. In addition, the Remaining activity in [12] was 0.989; in test [13], 0.934.

As to `CCCOc1cc(OCCCCN(C)C)cc(Oc2cc3c(cc2NS(=O)(=O)c2ccc(OC)c(OC)c2)n(C)c(=O)n3C)c1`, the Control in test [15] and in [16] was 0% in each case.

`COc1cccc(Cn2cc(C(=O)Nc3ccc(C)c(S(=O)(=O)N4CCOCC4)c3)c(-c3ccc(C)cc3)n2)c1`: the Remaining activity in test [17] was found to be 0.847; in test [19], 0.724; in test [21], 0.543; in test [22] it was 0.982; in test [24] it was 0.432; in test [25], 0.617. For the same compound, in [18], the Relative activation is 0.49%. Also, the P-value in test [20] was 1.23e-07. Moreover, the Fold activation in test [23] was determined as 1.1.
